Molecules are shown by their SMILES.

The values that follow come from US10258603B2 (priority 2014, dated 2019).

For the first experiment, the target named is T1, BRD9 (Homo sapiens, UniProt Q9H8M2).
T1 construct: 134-239 was cloned, expressed, and purified to homogeneity; Flag; made in house
T1 sequence (Q9H8M2 134-239 limits assumed): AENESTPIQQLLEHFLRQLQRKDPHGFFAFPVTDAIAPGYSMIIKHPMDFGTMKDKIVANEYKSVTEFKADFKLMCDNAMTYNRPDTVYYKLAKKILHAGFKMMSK
The experiment is described as follows: BRD9 AlphaLisa Binding Assay.
Conditions: not given
The procedure: IC50 Measurements for Inhibitors Using BRD9 AlphaLisa Binding Assay His/Flag epitope tagged BRD9134-239 was cloned, expressed, and purified to homogeneity. […] After 20 minutes incubation at room temperature AlphaLisa Streptavidin Acceptor Beads (Perkin-A[…]) and AlphaLisa Nickel donor beads (Perkin AS 10 ID) were added to a final concentration of 15 ug/mL each.
A general note: Alpha assays give light when donor and acceptor beads are brought close together.
The term IC50 denotes the midpoint of a concentration-inhibition curve. A lower IC50 goes with greater potency. `Cn1cc(C(=O)NC2CCCc3ccccc32)c2cc[nH]c2c1=O` (stereo not drawn) [Example 125]: the IC50 worked out at 130 nM.

On to `CCCCn1cc(C(=O)NCc2ccccc2)c2cc[nH]c2c1=O` [Example 259], for which the half-inhibitory concentration (IC50) was 600 nM. This IC50 is about 4.6-fold higher than that of the compound before.

Consider `CN1CCN(C(=O)c2cn(C)c(=O)c3[nH]ccc23)CC1` [Example 38, 6-methyl-4-(4-methylpiperazine-1-carbonyl)-1H-pyrrolo[2,3-c]pyridin-7-one], for which the IC50 was 8000 nM.

In turn, `Cn1cc(C(=O)N[C@@H](C(N)=O)c2ccccc2)c2cc[nH]c2c1=O` [Example 97] yielded an IC50 of 490 nM.

In turn, `Cn1cc(C(=O)NCC2Cc3ccccc3O2)c2cc[nH]c2c1=O` (stereo not drawn) [Example 110] returned an IC50 of 850 nM.

Regarding `CC=CCn1cc(C(=O)NCC2CCN(C)CC2)c2cc[nH]c2c1=O` [Example 11, 6-but-2-enyl-N-[(1-methyl-4-piperidyl)methyl]-7-oxo-1H-pyrrolo[2,3-c]pyridine-4-carboxamide], the IC50 turned out to be 5400 nM. Compared with the last compound, the IC50 is about 6.4-fold higher.

`CN1CCN(CCCNC(=O)c2cn(C)c(=O)c3[nH]ccc23)CC1` [Example 34, 6-methyl-N-[3-(4-methylpiperazin-1-yl)propyl]-7-oxo-1H-pyrrolo[2,3-c]pyridine-4-carboxamide] yielded an IC50 of 2200 nM.

As for `Cn1cc(C(=O)NC2CCOC2)c2cc[nH]c2c1=O` (stereo not drawn) [Example 104], the IC50 was 980 nM.

The compound `C=CCn1cc(C(=O)N(C)C2CCN(c3ccncn3)CC2)c2cc[nH]c2c1=O` [Example 161, 6-allyl-N-methyl-7-oxo-N-(1-pyrimidin-4-yl-4-piperidyl)-1H-pyrrolo[2,3-c]pyridine-4-carboxamide] came in with a 50% inhibitory concentration (IC50) of 2900 nM.

In the case of `CN1CCC(CNC(=O)c2cn(C)c(=O)c3[nH]ccc23)CC1` [Example 3, 6-methyl-N-[(1-methyl-4-piperidyl)methyl]-7-oxo-1H-pyrrolo[2,3-c]pyridine-4-carboxamide], the IC50 was found to be 3500 nM.

With `Cn1cc(C(=O)N2CCC(c3ccccc3)C2)c2cc[nH]c2c1=O` (stereo not drawn) [Example 89], the IC50 was found to be 4100 nM.

Turning to `CN(Cc1ccccc1)C(=O)c1cn(C)c(=O)c2[nH]ccc12` [Example 87], the IC50 came out at 1000 nM.

Compound `CC(NC(=O)c1cn(C)c(=O)c2[nH]ccc12)c1ccc(F)cc1` (stereo not drawn) [Example 129] returned an IC50 of 220 nM.

As for `Cn1cc(C(=O)NCC2CCCCCC2)c2cc[nH]c2c1=O` [Example 103], the IC50 was 490 nM.

The compound `Cn1cc(C(=O)NCC2COc3ccccc3O2)c2cc[nH]c2c1=O` (stereo not drawn) [Example 111] came in with an IC50 of 240 nM.

Consider `Cn1cc(C(=O)NCc2cccc3ccccc23)c2cc[nH]c2c1=O` [Example 114], for which the IC50 is 73 nM.

Compound `CN(C(=O)c1cn(C)c(=O)c2[nH]ccc12)C1CCN(Cc2ccccc2)C1` (stereo not drawn) [Example 22, N-(1-benzylpyrrolidin-3-yl)-N,6-dimethyl-7-oxo-1H-pyrrolo[2,3-c]pyridine-4-carboxamide] yielded an IC50 of 7300 nM.

`Cn1cc(C(=O)NC2COCc3ccccc32)c2cc[nH]c2c1=O` (stereo not drawn) [Example 121] registered an IC50 of 100 nM.

`CC(C)N1CCC(CN(C)C(=O)c2cn(C)c(=O)c3[nH]ccc23)CC1` [Example 190] returned a concentration for half-maximal inhibition (IC50) of 15000 nM. Against the preceding compound, the IC50 is about 150-fold higher.

The compound `Cn1cc(C(=O)NC2CCN(C(=O)OC(C)(C)C)C2)c2cc[nH]c2c1=O` (stereo not drawn) [Example 109] had an IC50 of 270 nM.

For `Cn1cc(C(=O)NCC2CCCCC2)c2cc[nH]c2c1=O` [Example 86], the IC50 amounted to 160 nM.

The compound `CC(C)CCN1CCC(N(C)C(=O)c2cn(C)c(=O)c3[nH]ccc23)CC1` [Example 217] returned an IC50 of 4700 nM.

For the compound `Cn1cc(C(=O)NCC2COc3ccccc3C2)c2cc[nH]c2c1=O` (stereo not drawn) [Example 108], the IC50 stood at 200 nM.

`CN(C)CCNC(=O)c1cn(C)c(=O)c2[nH]ccc12` [Example 1, N-(2-dimethylaminoethyl)-6-methyl-7-oxo-1H-pyrrolo[2,3-c]pyridine-4-carboxamide] showed an IC50 of 3000 nM.

`CC(NC(=O)c1cn(C)c(=O)c2[nH]ccc12)c1ccccc1Cl` (stereo not drawn) [Example 118] displayed an IC50 of 240 nM.

`CC(NC(=O)c1cn(C)c(=O)c2[nH]ccc12)c1ccncc1` (stereo not drawn) [Example 115] returned an IC50 of 640 nM. This IC50 lies about 2.7-fold higher than the previous one.

On to `Cn1cc(C(=O)NCc2ccccc2)c2cc[nH]c2c1=O` [Example 257], for which the IC50 came out at 180 nM. Compared with the last compound, the IC50 is about 3.6-fold lower.

The compound `Cc1cc(CC(C)NC(=O)c2cn(C)c(=O)c3[nH]ccc23)on1` (stereo not drawn) [Example 122] gave an IC50 of 2200 nM.

`CCCCn1cc(C(=O)NCC2CCN(C)CC2)c2cc[nH]c2c1=O` [Example 248]: the IC50 was found to be 3300 nM. Compared with the last compound, the IC50 is about 1.5-fold higher.

On to `C/C=C/Cn1cc(C(=O)NCc2ccccc2)c2cc[nH]c2c1=O` [Example 260], for which the IC50 came to 180 nM.

Compound `CN1CCC(NC(=O)c2cn(C)c(=O)c3[nH]ccc23)C1` (stereo not drawn) [Example 6, 6-methyl-N-(1-methylpyrrolidin-3-yl)-7-oxo-1H-pyrrolo[2,3-c]pyridine-4-carboxamide] had an IC50 of 1500 nM.

`Cn1cc(C(=O)NCC2CCCN2C(=O)OC(C)(C)C)c2cc[nH]c2c1=O` (stereo not drawn) [Example 136, tert-butyl 2-[[(6-methyl-7-oxo-1H-pyrrolo[2,3-c]pyridine-4-carbonyl)amino]methyl]pyrrolidine-1-carboxylate] returned an IC50 of 400 nM.

For another experiment, the target named is T2, TAF1-BD2 (Homo sapiens, UniProt P21675).
T2 sequence (P21675 1525-1656): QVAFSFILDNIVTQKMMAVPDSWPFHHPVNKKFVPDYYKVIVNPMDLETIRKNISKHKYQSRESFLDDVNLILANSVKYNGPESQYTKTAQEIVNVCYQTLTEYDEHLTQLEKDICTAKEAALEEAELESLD
The experiment in a line: TAF1-BD2 TR-FRET Binding Assay. To be noted: Assay: TAF-1. On the technique in general: TR-FRET usually uses a lanthanide donor and a delayed reading to cut background.
Protocol: Specifically, in a 384 well ProxiPlate TAF1-BD2 (6 nM final) was combined with biotin-ligand (50 nM final) in 50 mM HEPES (pH 7.5), 50 mM NaCl, 1 mM TCEP, 0.01% (w/v) BSA, and 0.008% (w/v) Brij-35 either in the presence of DMSO (final 0.2% DMSO) or compound dilution series in DMSO. After 10 minutes incubation at room temperature, a mixture Eu-W1024 Anti-6×His antibody (Perkin Elmer AD0110) and SureLight™ Allophycocyanin-Streptavidin (APC-SA, Perkin Elmer CR130-100) were added to a final concentrations of 0.2 nMolar antibody and 25 nMolar APC-SA, respectively. After twenty minutes of equilibration, the plates were read on an Envision instrument and IC50s calculated using a four parameter non-linear curve fit.
`Cn1cc(C(=O)NCC2CN(C(=O)OC(C)(C)C)C2)c2cc[nH]c2c1=O` [Example 130] displayed an IC50 of 1200 nM.

With `Cn1cc(C(=O)N2CCC(C(C)(C)C)CC2)c2cc[nH]c2c1=O` [Example 47, 4-(4-tert-butylpiperidine-1-carbonyl)-6-methyl-1H-pyrrolo[2,3-c]pyridin-7-one], the IC50 was determined as 2300 nM.

Compound `CC(C)c1ccc(N2CCC(N(C)C(=O)c3cn(C)c(=O)c4[nH]ccc34)CC2)cc1` [Example 180, N-[1-(4-isopropylphenyl)-4-piperidyl]-N,6-dimethyl-7-oxo-1H-pyrrolo[2,3-c]pyridine-4-carboxamide] showed an IC50 of 160 nM. This IC50 is about 14-fold lower than that of the compound before.

Take `Cn1cc(C(=O)NC2CCN(c3nccc(C(F)(F)F)n3)CC2)c2cc[nH]c2c1=O` [Example 153, 6-methyl-7-oxo-N-[1-[4-(trifluoromethyl)pyrimidin-2-yl]-4-piperidyl]-1H-pyrrolo[2,3-c]pyridine-4-carboxamide]: the IC50 worked out at 490 nM.

The compound `Cn1cc(C(=O)N2CCC(c3ccc(Cl)cc3)CC2)c2cc[nH]c2c1=O` [Example 48, 4-[4-(4-chlorophenyl)piperidine-1-carbonyl]-6-methyl-1H-pyrrolo[2,3-c]pyridin-7-one] returned an IC50 of 1500 nM.

For `CN1CCC(NC(=O)c2cn(C)c(=O)c3[nH]ccc23)CC1` [Example 4, 6-methyl-N-(1-methyl-4-piperidyl)-7-oxo-1H-pyrrolo[2,3-c]pyridine-4-carboxamide], the IC50 is 320 nM.

In turn, `Cn1cc(C(=O)NCC2CCN(C(=O)OC(C)(C)C)CC2)c2cc[nH]c2c1=O` [Example 133] registered an IC50 of 850 nM.

For the compound `Cn1cc(C(=O)NCC2CCN(C(=O)OC(C)(C)C)C2)c2cc[nH]c2c1=O` (stereo not drawn) [Example 137], the IC50 came out at 510 nM.

In turn, `Cn1cc(C(=O)NC2CCN(c3cccnn3)CC2)c2cc[nH]c2c1=O` [Example 155, 6-methyl-7-oxo-N-(1-pyridazin-3-yl-4-piperidyl)-1H-pyrrolo[2,3-c]pyridine-4-carboxamide] yielded an IC50 of 330 nM.

In turn, `CN(CC1CCN(CC2CCCCO2)CC1)C(=O)c1cn(C)c(=O)c2[nH]ccc12` (stereo not drawn) [Example 235] returned an IC50 of 9900 nM.

For the compound `Cn1cc(C(=O)NCCC2CCN(CC(F)(F)F)CC2)c2cc[nH]c2c1=O` [Example 20, 6-methyl-7-oxo-N-[2-[1-(2,2,2-trifluoroethyl)-4-piperidyl]ethyl]-1H-pyrrolo[2,3-c]pyridine-4-carboxamide], the IC50 turned out to be 1500 nM.

For `Cn1cc(C(=O)NC2CCN(c3nccc(C#N)n3)CC2)c2cc[nH]c2c1=O` [Example 156, N-[1-(4-cyanopyrimidin-2-yl)-4-piperidyl]-6-methyl-7-oxo-1H-pyrrolo[2,3-c]pyridine-4-carboxamide], the IC50 is 990 nM.

For `Cn1cc(C(=O)N2CCC(CCNS(C)(=O)=O)CC2)c2cc[nH]c2c1=O` [Example 54, N-[2-[1-(6-methyl-7-oxo-1H-pyrrolo[2,3-c]pyridine-4-carbonyl)-4-piperidyl]ethyl]methanesulfonamide], the IC50 was found to be 2900 nM.

`Cn1cc(C(=O)NCC2CCCN(C(=O)OC(C)(C)C)C2)c2cc[nH]c2c1=O` (stereo not drawn) [Example 135]: the IC50 is 1300 nM. This IC50 is about 2.2-fold lower than that of the compound before.

On to `CN(C(=O)c1cn(C)c(=O)c2[nH]ccc12)C1CCN(CCc2ccccc2)CC1` [Example 252, N,6-dimethyl-7-oxo-N-(1-phenethyl-4-piperidyl)-1H-pyrrolo[2,3-c]pyridine-4-carboxamide], for which the IC50 came to 5000 nM.

For the compound `Cn1cc(C(=O)N2CCC(Cc3ccccn3)CC2)c2cc[nH]c2c1=O` [Example 58, 6-methyl-4-[4-(2-pyridylmethyl)piperidine-1-carbonyl]-1H-pyrrolo[2,3-c]pyridin-7-one], the IC50 was 1500 nM.

For `CC(C)N1CC[C@@H](NC(=O)c2cn(C)c(=O)c3[nH]ccc23)[C@H](F)C1` (relative stereo) [Example 209], the IC50 came to 580 nM. This IC50 lies about 2.6-fold lower than the previous one.

Turning to `Cn1cc(C(=O)N2CCC(c3ccncn3)CC2)c2cc[nH]c2c1=O` [Example 56, 6-methyl-4-(4-pyrimidin-4-ylpiperidine-1-carbonyl)-1H-pyrrolo[2,3-c]pyridin-7-one], the concentration for half-maximal inhibition (IC50) was determined as 2500 nM.

In turn, `CN1CCC(CCNC(=O)c2cn(C)c(=O)c3[nH]ccc23)CC1` [Example 25, 6-methyl-N-[2-(1-methyl-4-piperidyl)ethyl]-7-oxo-1H-pyrrolo[2,3-c]pyridine-4-carboxamide] had an IC50 of 690 nM.
